Where only a bound is given, the exact number is not on record here.

What is called melting point is the temperature of the solid-liquid transition. For `CSc1nc2ccnn2c(NCc2cccc(Cl)c2)c1C#N` [compound 32], the melting point was determined as 155 °C.
In turn, `N#Cc1c(-c2ccccc2)nc2ccnn2c1NCc1ccncc1` [compound 89] yielded a melting point of 199 to 201 °C.
With `CCC(CC)Sc1nc2ccnn2c(N)c1C#N` [compound 113] the figure was 242 to 243.8 °C; with `CSc1nc2ccnn2c(Nc2ccc(O)cc2)c1C#N` [compound 170], 250 to 256 °C; with `CSc1nc2c(Br)cnn2c(NCc2ccccc2)c1C#N` [compound 55], 184 °C.
With `CCSc1nc2ccnn2c(N)c1C#N` [compound 66] the figure was greater than 240 °C.
With `CCSc1nc2ccnn2c(NCc2ccccc2)c1C#N` [compound 67] the figure was 112 to 113.4 °C; with `CSc1nc2ccnn2c(Nc2ccccc2C#N)c1C#N` [compound 214], 206 to 208 °C.
As to `CSc1nc2ccnn2c(NOCC2CCCO2)c1C#N` (stereo not shown) [compound 213], the melting point lay in the range of 143 to 144 °C.
Compound `N#Cc1c(-c2ccccc2)nc2ccnn2c1N` [compound 85] had a melting point greater than 250 °C.
With `CSc1nc2ccnn2c(O)c1C#N` [compound 49, 7-hydroxy-5-methylthiopyrazolo[1,5-a]pyrimidine-6-carbonitrile] the figure was greater than 250 °C; with `CSc1nc2cc(C)nn2c(O)c1C#N` [compound 184], greater than 250 °C.
With `CSc1nc2cc(C)nn2c(Cl)c1C#N` [compound 185] the figure was 182 to 187 °C; with `C#CCNc1c(S(C)(=O)=O)c(SC)nc2ccnn12` [compound 59], 175 °C; with `CSc1nc2ccnn2c(NCCc2ccccc2)c1C#N` [compound 12], 107 °C.
Take `N#Cc1c(Cc2ccccc2)nc2ccnn2c1NCc1ccccc1` [compound 88]: the melting point amounted to 163 °C.
With `CSc1nc2ccnn2c(Nc2cccc(C#N)c2)c1C(=O)O` [compound 134] the figure was 162.5 to 164.5 °C; with `N#Cc1c(SCc2ccccc2)nc2ccnn2c1N` [compound 69], 245.6 to 245.9 °C; with `CSc1nc2ccnn2c(N2CCC(C)CC2)c1C#N` [compound 160], 118 to 120 °C.
The result for `CSc1nc2ccnn2c(NCc2ccccc2)c1C(=O)O` [compound 128] reads 162.7 to 164 °C; that for `CSc1nc2ccnn2c(NCc2ncc(C(F)(F)F)cc2Cl)c1C#N` [compound 207], 185 to 187 °C.
With `CSc1nc2ccnn2c(Nc2ccc(C(N)=O)cc2)c1C#N` [compound 197] the figure was greater than 280 °C; with `CSc1nc2nc(SC)c(C#N)c(NCc3ccccc3)n2n1` [compound 36], 154 °C; with `CSc1nc2nc3ccccc3n2c(N)c1C#N` [compound 45], greater than 250 °C.
Compound `COc1c(C#N)c(SC)nc2ccnn12` [compound 229] showed a melting point of 223 to 224 °C.
The result for `C=CCSc1nc2ccnn2c(N)c1C#N` [compound 75] reads 258.5 to 259 °C; that for `CSc1nc2cc(C)nn2c(NCc2ccncc2)c1C#N` [compound 188], 190 to 191 °C; that for `CSc1nc2ccnn2c(NC2CCCC2)c1[N+](=O)[O-]` [compound 127], 132 to 134 °C.
With `CSc1nc2ccnn2c(Nc2ccc(C(C)=O)cc2)c1C#N` [compound 199] the figure was 260 to 261 °C; with `CSc1nc2ccnn2c(NCC(=O)c2ccccc2)c1C#N` [compound 18], 212 to 213 °C; with `CCN(Cc1ccncc1)c1c(C#N)c(SC)nc2ccnn12` [compound 228], 102 to 103 °C.
The result for `CSc1nc2ccnn2c(NOCC2OCCO2)c1C#N` [compound 208] reads 152 to 153 °C; that for `CSc1nc2ccnn2c(NC(C)=O)c1C#N` [Compound No. 7], greater than 280 °C; that for `CCOC(=O)c1ccc(Nc2c(C#N)c(SC)nc3ccnn23)cc1` [compound 175], 191 to 192 °C.
Regarding `CSc1nc2ccnn2c(NCOCc2ccccc2)c1C#N` [compound 10], the melting point lay in the range of 63 to 64 °C.
Consider `CSc1nc(NCc2ccccc2)n2nccc2n1` [compound 39], for which the melting point turned out to be 133 °C.
Compound `CSc1nc2ccnn2c(Nc2cccc(C#N)c2)c1C(=O)OCc1ccccc1` [compound 148] showed a melting point of 141 to 142 °C.
The result for `CSc1nc2ccnn2c(Nc2ccc(S(=O)(=O)N(C)C)cc2)c1C#N` [compound 150] reads 303 to 306 °C (dec.).
As for `CSc1nc2ccnn2c(SCc2ccccc2)c1C#N` [compound 183], the melting point was found to be 138 °C.
The result for `N#Cc1c(-c2ccccc2)nc2ccnn2c1NCc1ccccc1` [compound 86] reads 120 to 122 °C.
The result for `CSc1nc2ccnn2c(NOc2ncc(C(F)(F)F)cc2Cl)c1C#N` [compound 204] reads 182 to 183 °C.
The result for `CSc1nc2ccnn2c(OCc2ccccc2)c1C#N` [Compound No. 51, 7-benzyloxy-5-methylthiopyrazolo[1,5-a]pyrimidine-6-carbonitrile] reads 194 °C.
`CSc1nc2ccnn2c(Nc2ccncc2)c1C#N` [compound 81] showed a melting point of 260 to 263 °C.
The result for `CSc1nc2ccnn2c(Nc2ccc(OC(F)(F)F)cc2)c1C#N` [compound 167] reads 243 to 244 °C; that for `CSc1nc2ccnn2c(NCc2ccccc2)c1[N+](=O)[O-]` [compound 125], 136.5 to 138.5 °C; that for `CSc1nc2ccnn2c(Cl)c1C#N` [compound 62, 7-chloro-5-methylthiopyrazolo[1,5-a]pyrimidine-6-carbonitrile], 201 to 202 °C.
With `CSc1nc2cccn2c(NC2CCCCC2)c1C#N` [compound 109] the figure was 117 to 118 °C.
In turn, `COCSc1nc2ccnn2c(NCc2ccccc2)c1C#N` [compound 107] displayed a melting point of 137.4 to 141.4 °C.
With `C#CCSc1nc2ccnn2c(NCc2ccccc2)c1C#N` [compound 95] the figure was 142.2 to 144.2 °C; with `CSc1nc2cc(C)nn2c(NCc2ccccc2)c1C#N` [compound 187], 204 to 205 °C.
With `CSc1nc2ccnn2c(N(Cc2ccccn2)Cc2ccccn2)c1C#N` [compound 6] the figure was 139 °C; with `CSc1nc2cc(-c3ccccc3)nn2c(N)c1C#N` [compound 44], 233 °C; with `COC(=O)c1c(SC)nc2ccnn2c1NC1CCCC1` [compound 123], 84.5 to 85.5 °C.
The result for `CSc1nc2ccnn2c(Nc2cccc(S(N)(=O)=O)c2)c1C#N` [compound 152] reads greater than 280 °C; that for `N#Cc1c(Cc2ccccc2)nc2ccnn2c1N` [compound 87], 242 °C; that for `CSc1nc2ccnn2c(Nc2ccc(NC(C)=O)cc2)c1C#N` [compound 193], greater than 280 °C.
Regarding `N#Cc1c(C2CCCCC2)nc2ccnn2c1N` [compound 91], the melting point was greater than 250 °C.
With `CSc1nc2c(Br)cnn2c(N)c1C#N` [compound 54] the figure was greater than 250 °C.
With `CSc1nc2ccnn2c(NCc2cccc3ccccc23)c1C#N` [compound 30] the figure was 195 °C; with `CSc1nc2ccnn2c(NCc2ccccc2)c1S(C)(=O)=O` [compound 61], 163 to 164 °C; with `N#Cc1c(Cc2ccccc2)nc2ccnn2c1NCc1ccncc1` [compound 90], 195 to 198 °C.
The result for `CSc1nc2ccnn2c(NCc2ccncc2)c1S(C)(=O)=O` [compound 63] reads 195 to 196 °C.
Turning to `CCC(CC)Sc1nc2ccnn2c(NCc2ccccc2)c1C#N` [compound 114], the melting point was 107 to 108.3 °C.
As to `CSc1nc2ccnn2c(N)c1C#N` [compound 41], the melting point is greater than 250 °C.
The compound `CSc1nc2ccnn2c(Nc2cccc(Cl)c2)c1C#N` [compound 162] displayed a melting point of 161 to 162 °C.
With `CSc1nc2ccnn2c(N=Cc2ccccc2)c1C#N` [compound 34] the figure was 188 °C; with `CSc1nc2ccnn2c(Nc2ccc(CC#N)cc2)c1C#N` [compound 198], 268 to 269 °C; with `COCSc1nc2ccnn2c(N)c1C#N` [compound 106], 214 to 216 °C (dec.).
The result for `CSc1nc2ccnn2c(NCc2ccc(Cl)cc2)c1C#N` [compound 31] reads 167 °C.
The result for `N#Cc1c(SC2CCCC2)nc2ccnn2c1N` [compound 103] reads 270.5 to 271.3 °C; that for `CSc1nc2nc(SC)c(C#N)c(N)n2n1` [compound 35], greater than 250 °C; that for `CSc1nc2ccnn2c(NOCCC2OCCCO2)c1C#N` [compound 217], 193 to 195 °C.
Compound `CCOC(=O)CNc1c(C#N)c(SC)nc2ccnn12` [compound 13] registered a melting point of 184 to 185 °C.
The result for `CSc1nc2ccnn2c(Nc2ccc(S(N)(=O)=O)cc2)c1C#N` [compound 149] reads 285 to 288 °C (dec.); that for `CSc1nc2cc(C)nn2c(Nc2ccccc2)c1C#N` [compound 189], 185 to 187 °C.
The result for `CSc1nc2ccnn2c(Nc2ccc(S(C)(=O)=O)cc2)c1C#N` [compound 201] reads 241 to 244 °C; that for `CSc1nc2ccnn2c(NOc2ccccc2)c1C#N` [compound 179], greater than 250 °C.
The result for `CSc1nc2ccnn2c(NCc2cccs2)c1C#N` [compound 180] reads 142 °C; that for `C#CCSc1nc2ccnn2c(N)c1C#N` [compound 94], 206 °C (dec.).
With `N#Cc1c(SCc2ccccc2)nc2ccnn2c1NCc1ccccc1` [compound 70], the melting point fell in the range of 121 to 122.2 °C.
Regarding `CCC(CC)Sc1nc2ccnn2c(NCc2ccncc2)c1C#N` [compound 115], the melting point is 129 to 133.4 °C.
The result for `CSc1nc2ccnn2c(NOCC2CCCCO2)c1C#N` (stereo not shown) [compound 209] reads 161 °C.

The values above are taken from patent US7067520B2, “Preventive or therapeutic medicines for diabetes containing fused-heterocyclic compounds or their salts” (Ishihara Sangyo Kaisha, Ltd., priority 2000, dated 2006).
